Where a name gives a salt, the structure may show the parent alone.
Test system: human form of induced nitric oxide synthase in DLD-1 cells
Assay: Screen 3: nitrite accumulation (Griess) in cytokine-induced DLD-1 cells
Assay type: cell-based
Details: DLD-1 cells induced with gamma-IFN, TNF-alpha, IL-6, IL-1-beta, 5 hours with compound, read-out: IC50 (inhibition of nitrite accumulation)
Experimental: The human colorectal carcinoma cell line, DLD-1 (obtained from the European Collection of Animal Cell Culture—cell line number 90102540) was routinely grown in RPMI 1640 supplemented with 10% (v/v) foetal bovine serum, and 2 mM L-glutamine, at 37° C. in 5% CO2. Nitric oxide synthase was induced in cells by addition of medium containing human recombinant gamma-IFN (1000 units/ml), TNF-alpha (200 U/ml), IL-6 (200 U/ml) and IL-1-beta (250 U/ml). After incubation for 18 hours at 37° C., the medium was removed and the cells washed with warm phosphate buffered saline. Cells were incubated for a further 5 hours at 37° C./5% CO2 in RPMI 1640 containing 100 μM L-arginine and 100 μM verapamil-HCl in the presence and absence of test compounds. Nitrite accumulation was determined by mixing an equal volume of culture media with Griess reagent (10 mg/ml sulphanilamide, 1 mg N-(1-naphthyl)ethylenediamine in 1 ml 2.5% (v/v) phosphoric acid). Inhibition in the presence of compounds was calculated relative to the nitrite levels produced by untreated cells. IC50 values were estimated from a semi-log plot of % inhibition versus concentration of compound.

IC50 [µM]	SMILES
< 100	Cc1cc(S[C@H](C[C@H](N)CO)c2ccccc2)c(C#N)s1 [Example 2, 3-[[(1R,3S)-3-Amino-4-hydroxy-1-phenylbutyl]thio]-5-methyl-2-thiophenecarbonitrile Oxalate]
< 100	N#Cc1sccc1S[C@H](C[C@H](N)CO)c1ccccc1 [Example 1, 3-[[(1R,3S)-3-Amino-4-hydroxy-1-phenylbutyl]thio]-2-thiophenecarbonitrile oxalate]
